As a reminder, the Ki is the equilibrium dissociation constant of an inhibitor or competing ligand from its target. High values mean weaker binding, low ones tighter binding.

The target of the experiment is T1, human FAAH (Homo sapiens, UniProt O00519).
T1 construct: The clone was in an ORIGENE® pCMV6-XL5 with an insert size of ˜2.2 kb
T1 sequence (O00519 50-579 limits assumed): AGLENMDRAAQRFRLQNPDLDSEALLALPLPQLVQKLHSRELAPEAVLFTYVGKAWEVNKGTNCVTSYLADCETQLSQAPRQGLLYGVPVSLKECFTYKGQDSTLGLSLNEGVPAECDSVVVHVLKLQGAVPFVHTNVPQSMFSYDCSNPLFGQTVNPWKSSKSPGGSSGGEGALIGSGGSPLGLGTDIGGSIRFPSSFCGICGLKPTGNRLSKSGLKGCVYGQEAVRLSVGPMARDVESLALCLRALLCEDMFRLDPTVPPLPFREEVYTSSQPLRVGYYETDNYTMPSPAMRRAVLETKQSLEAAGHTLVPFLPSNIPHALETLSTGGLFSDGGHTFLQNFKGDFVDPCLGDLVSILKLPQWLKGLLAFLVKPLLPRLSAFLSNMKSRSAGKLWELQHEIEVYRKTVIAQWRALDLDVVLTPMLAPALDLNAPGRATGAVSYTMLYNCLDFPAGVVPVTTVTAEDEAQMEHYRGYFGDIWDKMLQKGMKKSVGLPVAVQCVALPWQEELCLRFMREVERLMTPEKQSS
The experiment is described as follows: Ki determination, human FAAH (AMC-arachidonoyl amide hydrolysis, fluorescence end point). In kind it is biochemical. As to conditions: hFAAH 108 μg/mL, substrate 20 μM, 30 min preincubation, 4 hours at room temperature. From the text:
A human FAAH (hFAAH) cDNA clone was purchased from Origen (Catalog #TC 119221, Accession #NM_001441.1). The clone was in an ORIGENE® pCMV6-XL5 with an insert size of ˜2.2 kb. Sequencing of the clone indicated a conservative mutation of K48R. This point mutation is possibly an allelic difference, and is far from the active site and unlikely to effect the activity. This plasmid was amplified in E. coli and isolated by precipitation. […]
Frozen cell pellets were thawed on ice and resuspended in: 12.5 mM HEPES (pH 8.0), 100 mM NaCl, and 1 mM EDTA at a ratio of 25 mL per gram of cells. […] Total protein concentrations were determined using a Bio-Rad Protein Assay (Protein Assay Dye Reagent Concentrate, cat#500-0006) ref. 5. […]
The Ki of a test compound was determined for rat and human FAAH by measuring the dose dependent inhibition of AMC-Arachidonoyl amide hydrolysis as an end point read. Assays were carried out in Corning COSTAR® 384 well flat black bottom microtiter plates (Catalog #3654) and monitored in an Envision 2100 multilabel plate reader (Perkin Elmer-Wallac), with a 355 nm (40 nm band pass) excitation filter and 460 nm (25 nm bandpass) emission filter. […]

Turning to `OB(O)c1ccc(-c2ccc(B(O)O)c(F)c2)cc1F` [IMP-4], the inhibition constant (Ki) came out at 14.1 nM.

For the origin of these results see patent US9951089B2, “Methods of treating a fatty acid amide hydrolase-mediated condition” (INFINITY PHARMACEUTICALS, INC., priority 2010, dated 2018).
